In PMC9911168, “Cytotoxic and pro-apoptotic effects of botanical drugs derived from the indigenous cultivated medicinal plant Paris polyphylla var. yunnanensis” (Frontiers in Pharmacology, 2023):
Several values for one entry are separate records, joined by “and”; a condition that tells them apart may be missing. Equal entries are not always repeated. Entries after “also recorded” stand apart in the source; their conditions may differ. Where two headings read alike, the source gives them in different places.

Tests used:
Assay type in all cases: cell-based, human
[1] = system: HepG2 cells; assay: Cell cycle analysis (PI staining, flow cytometry), HepG2; conditions: HepG2, 24 h, 1 μM
Description: (§1) Cell cycle distribution was determined by propidium iodide (PI, BD, Pharmingen) staining ([Kong et al., 2016]; [Wei et al., 2021]). Briefly, three cancer cell lines were cultured in six-well plates at a density of 3 × 10^5 cells per well for 24 h before treatment with each of the six isolated saponins at the indicated concentrations for 24 h. The cells were collected, centrifuged, and washed twice with ice-cold PBS. Cells were fixed in 70% (v/v) ice-cold ethanol at 4°C overnight and washed again in PBS twice. The cells were incubated with 100 μL RNase A at 37°C for 30 min in the dark, after which 400 μL PI was added to the cells with RNase A in the dark at 4°C for 15 min. The cell cycle stage was analyzed by flow cytometry (BD, FACSCelesta, United States) with FLOWJO software (FlowJo, Ashland, OR, United States).

[2] = system: A549 cells; assay: Cell cycle analysis (PI staining, flow cytometry), A549; conditions: A549, 24 h; saponins 1 and 5 at 0.5 μM, other four at 1 μM
Description: as §1

[3] = system: A549; assay: MTS cell viability assay, A549; conditions: NSCLC cell line A549, MTS, 48 h; for IC50: read-out: IC50 (±SD) A549
Description: (§2) The effects of the extracts and isolated saponins on cell growth were evaluated by the MTS assay (3-(4,5-dimethylthiazol-2-yl)-5(3-carboxymethoxyphenyl)-2-(4-sulfopheny)-2H-tetrazolium; Promega, Madison, WI, United States) on human tumor cell lines ([Mosmann, 1983]; [Cory et al., 1991]; [Malich et al., 1997]). In a test experiment of cell inhibition, the cell inhibition effects of six crude extracts (100 μg/mL) and six isolated saponins (40 μM) were roughly measured to ascertain whether to measure the IC50 value by MTS assay.
(§3) Each well of a 96-well plate (Multiskan Fc, Therm) was seeded with 100 μL cells at a density of 3,000–5,000 cells per well, with the cell suspension containing 10% (v/v) fetal bovine serum (DMEM or RMPI1640, Biological Industries, Kibbutz Beit-Haemek, Israel). After 12–24 h of inoculation and culture at 37°C, the extracts or saponins were added at the indicated concentrations after being dissolved in dimethyl sulfoxide (DMSO, Biological Industries, Kibbutz Beit-Haemek, Israel) in a final volume of 200 μL per well, each in triplicate. The six crude extracts were added at concentrations of 100, 20, 4, 0.8, and 0.16 μg/mL; the six isolated saponins were added at concentrations of 10, 5, 2.5, 1.25, 0.625, and 0.3125 μM. After culture for 48 h at 37°C, 20 μL of MTS solution and 100 μL of DMEM were added to each well; three blank wells were set aside with 20 μL MTS solution and 100 μL DMEM. After an incubation for another 2–4 h, the absorbance at 492 nm was measured. Cisplatin and Paclitaxel (MeilunBio) were used as a positive control in each experiment. The cell growth curve was drawn with the concentration as the abscissa and the cell survival rate as the ordinate. The IC50 value of each saponin was calculated by the two-point method ([Reed and Muench, 1938]).

[4] = system: HepG2 cells; assay: Apoptosis by annexin V-FITC/PI staining, HepG2; conditions: HepG2, saponins 5 μM, Figure 7
Description: (§4) Double staining with annexin V-fluorescein isothiocyanate (FITC) and PI was used to determine the effects of the six saponins on cell apoptosis by flow cytometry ([Homburg et al., 1995]; [Vermes et al., 1995]; [Casciola-Rosen et al., 1996]). The effects of the six isolated saponins on apoptosis were determined using an annexin V-FITC apoptosis kit (BD, Pharmingen); the chemotherapy drug doxorubicin (DOX, Beyotime Institute of Biotechnology, Shanghai, China) was used as the positive control. Cells were cultured in six-well plates at a density of 3 × 10^5 cells per well for 24 h before being treated with each of the six isolated saponins at the indicated concentrations for 24 h. The cells were collected, centrifuged, and washed twice with ice-cold phosphate-buffered saline (PBS). The cells were stained with annexin V-FITC and PI for 15 min in the dark at room temperature before analysis by flow cytometry (BD, FACSCelesta, America). Annexin V-FITC^+ and PI^+ (Q2) were considered late-stage apoptotic cells, while annexin V-FITC^+ and PI^− (Q3) cells were considered early-stage apoptotic cells. Annexin V-FITC^– and PI^+ (Q1) were necrotic or mechanically damaged cells, and annexin V-FITC^– and PI^− (Q4) cells were healthy living cells.

[5] = system: BEAS-2B; assay: MTS cell viability assay, normal lung cell BEAS-2B; conditions: normal lung cell BEAS-2B, MTS, read-out: IC50 (±SD) BEAS-2B
Description: (§5) Three human liver cancer cell lines (SMMC-7721, HepG2, and SK-HEP-1) and the non-small-cell lung cancer (NSCLC) cell line A549 were obtained from ATCC (Manassas, VA, United States). Normal human cell lines (liver cell line LO2 and lung cell line BEAS-2B) were obtained from ATCC (Manassas, VA, United States). Cells were cultured in RMPI-1640 or DMEM medium (Biological Industries, Kibbutz Beit-Haemek, Israel) supplemented with 10% (v/v) fetal bovine serum (Biological Industries) at 37°C in a humidified atmosphere with 5% (v/v) CO2.
as §2, §3

[6] = system: A549 cells; assay: Apoptosis by annexin V-FITC/PI staining, A549; conditions: A549, saponins 5 μM, Figure 7
Description: as §4

[7] = system: LO2; assay: MTS cell viability assay, normal liver cell LO2; conditions: normal liver cell LO2, MTS, read-out: IC50 (±SD) LO2
Description: as §5, §2, §3

[8] = system: HepG2; assay: MTS cell viability assay, HepG2; conditions: liver cancer cell line HepG2, MTS, 48 h; for IC50: read-out: IC50 (±SD) HepG2
Description: as §2, §3

[9] = system: SMMC-7721; assay: MTS cell viability assay, SMMC-7721; conditions: liver cancer cell line SMMC-7721, MTS, 48 h; for IC50: read-out: IC50 (±SD) SMMC-7721
Description: as §2, §3

[10] = system: SK-HEP-1; assay: MTS cell viability assay, SK-HEP-1; conditions: liver cancer cell line SK-HEP-1, MTS, 48 h; for IC50: read-out: IC50 (±SD) SK-HEP-1
Description: as §2, §3

[11] = system: SMMC-7721 cells; assay: Apoptosis by annexin V-FITC/PI staining, SMMC-7721; conditions: SMMC-7721, saponins 5 μM, Figure 7
Description: as §4

What does the source list for `CC1CCC2(OC1)OC1CC3C4CC=C5CC(OC6OC(CO)C(OC7OC(CO)C(O)C7O)C(O)C6OC6OC(C)C(O)C(O)C6O)CCC5(C)C4CCC3(C)C1(O)C2C` [saponin 2, pennogenin-3-O-α-L-arabinofuranosyl-(1→4)-[α-L-rhamnopyranosyl-(1→2)]-β-D-glycopyranoside]?
cell cycle phase with increased proportion of cells compared to DMSO control [1]: S and G2/M phases; cell cycle phase with increased proportion of cells compared to DMSO control [2]: S and G2/M phases; IC50 ([3]; Homo sapiens): 1250 ± 20 nM; apoptosis rate (induction of apoptosis, in words) [4]: next; IC50 ([5]; Homo sapiens): 4950 ± 40 nM; apoptosis rate (induction of apoptosis, in words) [6]: strong apoptosis; IC50 ([7]; Homo sapiens, L02): 2330 ± 100 nM; IC50 ([8]; Homo sapiens): 2140 ± 10 nM; IC50 ([9]; Homo sapiens): 1880 ± 70 nM; IC50 ([10]; Homo sapiens, SK-HEP1): 1580 ± 80 nM

What does the source list for `N.N.[Cl][Pt][Cl]` [Cisplatin, reference compound]?
IC50 (±SD) A549 [3]: 16.74 ± 0.68 µg/mL; IC50 [3]: 26100 ± 520 nM; IC50 [5]: > 40000 nM; IC50 [7]: 13800 ± 480 nM; IC50 (±SD) HepG2 [8]: 1.90 ± 0.13 µg/mL; IC50 [8]: 5670 ± 100 nM; IC50 (±SD) SMMC-7721 [9]: 5.05 ± 0.12 µg/mL; IC50 [9]: 17800 ± 570 nM; IC50 (±SD) SK-HEP-1 [10]: 8.79 ± 0.49 µg/mL; IC50 [10]: 21000 ± 710 nM

Which results are given for “pennogenin-3-O-α-L-rhamnopyranosyl-(1→2)-[α-L-rhamnopyranosyl-(1→4)]-β-D-glucopyranoside [saponin 1]”?
increase of proportion of cells in S phase compared to DMSO control [1]: 23.7%; cell cycle phase with increased proportion of cells compared to DMSO control [2]: G2/M phase; IC50 [3]: 980 ± 10 nM; apoptosis rate (induction of apoptosis, in words) [4]: next and stronger apoptosis than the positive control DOX; apoptosis rate (induction of apoptosis, in words) ([4]; listed as Saponin 1): also effective; IC50 [5]: 1190 ± 10 nM; apoptosis rate (induction of apoptosis, in words) [6]: stronger apoptosis than the positive control DOX; apoptosis rate (induction of apoptosis, in words) ([6]; listed as Saponin 1): most effective in inducing apoptosis; IC50 [7]: 1790 ± 100 nM; apoptosis rate (induction of apoptosis, in words) [11]: stronger apoptosis than the positive control DOX; apoptosis rate (induction of apoptosis, in words) ([11]; listed as Saponin 1): most effective in inducing apoptosis; IC50 [8]: 1780 ± 10 nM; IC50 [9]: 760 ± 30 nM; IC50 [10]: 900 ± 40 nM

What does the source list for `CC1CCC2(OC1)OC1CC3C4CC=C5CC(OC6OC(CO)C(OC7OC(C)C(OC8OC(C)C(O)C(O)C8O)C(O)C7O)C(O)C6OC6OC(C)C(O)C(O)C6O)CCC5(C)C4CCC3(C)C1(O)C2C` [saponin 5, pennogenin 3-O-α-L-rhamnopyranosyl-(1→2)-[α-L-rhamnopyranosyl-(1→4)-α-L-rhamnopyranosyl-(1→4)]-β-D-glucopyranoside]?
cell cycle phase with increased proportion of cells compared to DMSO control [1]: S and G2/M phases; cell cycle phase with increased proportion of cells compared to DMSO control [2]: S phase; IC50 ([3]; Homo sapiens): 900 ± 10 nM; apoptosis rate (induction of apoptosis, in words) [4]: highest apoptosis rate; also recorded: stronger apoptosis than the positive control DOX; IC50 ([5]; Homo sapiens): 940 ± 30 nM; apoptosis rate (induction of apoptosis, in words) [6]: stronger apoptosis than the positive control DOX; apoptosis rate (induction of apoptosis, in words) ([6]; listed as Saponin 5): strong apoptosis; IC50 ([7]; Homo sapiens, L02): 900 ± 20 nM; apoptosis rate (induction of apoptosis, in words) [11]: substantial induction of apoptosis; also recorded: stronger apoptosis than the positive control DOX; IC50 ([8]; Homo sapiens): 1570 ± 10 nM; IC50 ([9]; Homo sapiens): 1200 ± 100 nM; IC50 ([10]; Homo sapiens, SK-HEP1): 940 ± 60 nM

Which results are given for `CC1CCC2(OC1)OC1CC3C4CC=C5CC(OC6OC(CO)C(OC7OC(CO)C(O)C7O)C(O)C6OC6OC(C)C(O)C(O)C6O)CCC5(C)C4CCC3(C)C1C2C` [saponin 4, diosgenin-3-O-α-L-arabinofuranosyl-(1→4)-[α-L-rhamnopyranosyl-(1→2)]-β-D-glucopyranoside]?
increase of proportion of cells in the G2/M phase compared to DMSO control [1]: 17.2%; cell cycle phase with increased proportion of cells compared to DMSO control [2]: increase in the proportion of cells at the G2/M phase; IC50 ([3]; Homo sapiens): 580 ± 10 nM; IC50 ([5]; Homo sapiens): 1820 ± 90 nM; IC50 ([7]; Homo sapiens, L02): 850 ± 10 nM; IC50 ([8]; Homo sapiens): 1590 ± 30 nM; IC50 ([9]; Homo sapiens): 720 ± 20 nM; IC50 ([10]; Homo sapiens, SK-HEP1): 660 ± 40 nM

Which results are given for `CC1CCC2(OC1)OC1CC3C4CC=C5CC(OC6OC(CO)C(OC7OC(C)C(O)C(O)C7O)C(O)C6OC6OC(C)C(O)C(O)C6O)CCC5(C)C4CCC3(C)C1C2C` [saponin 3, diosgenin-3-O-α-L-rhamnopyranosyl-(1→2)-[α-L-rhamnopyranosyl-(1→4)]-β-D-glucopyranoside]?
increase of proportion of cells in S phase compared to DMSO control [1]: 27.5%; cell cycle phase with increased proportion of cells compared to DMSO control [2]: G0/G1 phase; IC50 ([3]; Homo sapiens): 1690 ± 40 nM; IC50 ([5]; Homo sapiens): 3070 ± 190 nM; IC50 ([7]; Homo sapiens, L02): 3780 ± 180 nM; IC50 ([8]; Homo sapiens): 3800 ± 50 nM; IC50 ([9]; Homo sapiens): 2560 ± 80 nM; IC50 ([10]; Homo sapiens, SK-HEP1): 1800 ± 70 nM

For `CC(=O)O[C@H]1C(=O)[C@@]2(C)[C@H]([C@H](OC(=O)c3ccccc3)[C@]3(O)C[C@H](OC(=O)[C@H](O)[C@@H](NC(=O)c4ccccc4)c4ccccc4)C(C)=C1C3(C)C)[C@]1(OC(C)=O)CO[C@@H]1C[C@@H]2O` [Paclitaxel, reference compound], which IC50 ([3]; Homo sapiens) is on record?
Its IC50 is < 0.01 µg/mL and < 10 nM.

And the IC50 ([5]; Homo sapiens)?
Its IC50 is greater than 5000 nM.

And the IC50 ([7]; Homo sapiens, L02)?
Its IC50 is less than 10 nM.

And the IC50 ([8]; Homo sapiens)?
Its IC50 is < 0.01 µg/mL and < 10 nM.

What about the IC50 ([9]; Homo sapiens) of the same compound?
Its IC50 is 0.12 µg/mL and 180 nM.

What about the IC50 ([10]; Homo sapiens, SK-HEP1) of the same compound?
The IC50 was < 0.01 µg/mL and < 10 nM.
